Test results reported in patent publication US20240018146A1, “COMPOSITIONS AND METHODS OF USING THE SAME FOR TREATMENT OF NEURODEGENERATIVE AND MITOCHONDRIAL DISEASE” (MITOKININ, INC., priority 2020, published 2024).
Where two headings read alike, the source gives them in different places.

Legend:
Format in all cases: cell-based
[1] = test system: HeLa MKYP cells; assay: Cell death measured by DAPI staining, with 1 μM FCCP/oligomycin or no toxin (no FO)
How it was run: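 HeLa MKYP cells were treated with compounds alongside 1 μM FCCP/oligomycin or no toxin for 6 or 6.5 h. Cell death was scored by DAPI staining, with H2O2 treatment as the death control.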

[2] = Mitotoxicity / Mitotox safety margin (therapeutic window)
[3] = test system: HeLa MKYP cells; assay: Human mitophagy assay (HeLa mKeima assay, FACS); settings: read-out: Mitophagy induction EC50
How it was run: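 HeLa cells carrying the pH-sensitive mtKeima tag incubated 16 h with compound at several concentrations, then 1 uM FCCP/oligomycin for 6 h. FACS detects mitochondria in lysosomes through the Keima emission shift, quantified as percentage of cells in mitophagy.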

In the case of `Fc1ccc2c(c1)CC[C@H](N1C[C@H]3COC[C@H]3C1)[C@H]2Nc1ncnc2[nH]c(C3CC3)cc12` [EP-0040601], the “Highest safe dose (cytotoxicity; no FO; safe means DAPI+ <20%)” value [1] is reported as 25.0 µM, the “Max % death with 1 μM FO” value [1] is reported as 45.3% and the “Mito-Safety Index (highest safe dose/EC50)” value (“Mito-Safety Index” below) [2] is reported as 55.12. The “Highest safe dose (μM) (mitotox or cytotox)” value (“Highest safe dose (μM)” for short) [2] was 10.3 µM and the EC50 ([3]; Homo sapiens, HeLa) was 190 nM.
In the case of `Fc1ccc2c(c1)CC[C@H](N1C[C@@H]3COC[C@H]3C1)[C@H]2Nc1ncnc2[nH]c(C3CC3)cc12` [EP-0040669], the “Highest safe dose (cytotoxicity; no FO; safe means DAPI+ <20%)” value [1] is reported as 25.0 µM, the “Max % death with 1 μM FO” value [1] is reported as 29.9% and the “Mito-Safety Index” value [2] is reported as 71.36. For the same molecule, the “Highest safe dose (μM)” value [2] was 25.0 µM and the EC50 ([3]; Homo sapiens, HeLa) was 350 nM.
For `FC(F)(F)c1cc2c(NC3c4ccccc4OCC3N3C[C@@H]4COC[C@H]4C3)ncnc2[nH]1` (stereo partly shown) [EP-0040677], the “Highest safe dose (cytotoxicity; no FO; safe means DAPI+ <20%)” value [1] was 25.0 µM, the “Max % death with 1 μM FO” value [1] was 11.1% and the “Mito-Safety Index” value [2] was 77.08. For the same molecule, the “Highest safe dose (μM)” value [2] was 25.0 µM and the EC50 ([3]; Homo sapiens, HeLa) was 320 nM.
For `FC(F)(F)c1cc2c(NC3c4ccccc4OCC3N3C[C@H]4COC[C@@H]4C3)ncnc2[nH]1` (stereo partly shown) [EP-0040678], the “Highest safe dose (cytotoxicity; no FO; safe means DAPI+ <20%)” value [1] was 25.0 µM, the “Max % death with 1 μM FO” value [1] was 9.2% and the “Mito-Safety Index” value [2] was 28.90. For the same molecule, the “Highest safe dose (μM)” value [2] was 25.0 µM and the EC50 ([3]; Homo sapiens, HeLa) was 860 nM.
For `COC1CN([C@H]2CCc3ccccc3[C@@H]2Nc2ncnc3[nH]c(C(F)(F)F)cc23)C1` [EP-0040688], the “Highest safe dose (cytotoxicity; no FO; safe means DAPI+ <20%)” value [1] was 8.3 µM, the “Max % death with 1 μM FO” value [1] was 82.1% and the “Mito-Safety Index” value [2] was 26.96. For the same molecule, the “Highest safe dose (μM)” value [2] was 8.3 µM and the EC50 ([3]; Homo sapiens, HeLa) was 310 nM.
With `Fc1ccc2c(c1)CC[C@H](N1C[C@H]3COC[C@@H]3C1)[C@H]2Nc1ncnc2[nH]c(C(F)(F)F)cc12` [EP-0040695] the “Highest safe dose (cytotoxicity; no FO; safe means DAPI+ <20%)” value [1] was 25.0 µM, the “Max % death with 1 μM FO” value [1] was 20.7% and the “Mito-Safety Index” value [2] was 89.34. For the same molecule, the “Highest safe dose (μM)” value [2] was 9.1 µM and the EC50 ([3]; Homo sapiens, HeLa) was 100 nM.
For `COC1CN([C@H]2COc3ccccc3[C@@H]2Nc2ncnc3[nH]c(C(F)(F)F)cc23)C1` [EP-0040697], the “Highest safe dose (cytotoxicity; no FO; safe means DAPI+ <20%)” value [1] was 8.3 µM, the “Max % death with 1 μM FO” value [1] was 57.6% and the “Mito-Safety Index” value [2] was 15.51. For the same molecule, the “Highest safe dose (μM)” value [2] was 8.3 µM and the EC50 [3] was 540 nM.
With `COC1CN([C@H]2COc3ccccc3[C@@H]2Nc2ncnc3[nH]c(C4CC4)cc23)C1` [EP-0040702] the “Highest safe dose (cytotoxicity; no FO; safe means DAPI+ <20%)” value [1] was 25.0 µM, the “Max % death with 1 μM FO” value [1] was 7.7% and the “Mito-Safety Index” value [2] was 77.26. For the same molecule, the “Highest safe dose (μM)” value [2] was 25.0 µM and the EC50 [3] was 320 nM.
With `c1ccc2c(c1)CC[C@H](C1CCOCC1)[C@H]2Nc1ncnc2[nH]c(C3CC3)cc12` [EP-0040726] the “Highest safe dose (cytotoxicity; no FO; safe means DAPI+ <20%)” value [1] was 25.0 µM, the “Max % death with 1 μM FO” value [1] was 20.5% and the “Mito-Safety Index” value [2] was 100.89. The “Highest safe dose (μM)” value [2] was 2.1 µM and the EC50 ([3]; Homo sapiens, HeLa) was 20 nM.
For `c1ccc2c(c1)OC[C@@H](C1CCOCC1)[C@@H]2Nc1ncnc2[nH]c(C3CC3)cc12` [EP-0040729], the “Highest safe dose (cytotoxicity; no FO; safe means DAPI+ <20%)” value [1] was 25.0 µM, the “Max % death with 1 μM FO” value [1] was 17.1% and the “Mito-Safety Index” value [2] was 52.06. For the same molecule, the “Highest safe dose (μM)” value [2] was 3.2 µM and the EC50 ([3]; Homo sapiens, HeLa) was 60 nM.
With `c1ccc2c(c1)CC[C@H](N1C[C@@H]3COC[C@H]3C1)[C@H]2Nc1ncnc2[nH]c(C3CC3)cc12` [EP-0040768] the “Highest safe dose (cytotoxicity; no FO; safe means DAPI+ <20%)” value [1] was 25.0 µM, the “Max % death with 1 μM FO” value [1] was 33.1% and the “Mito-Safety Index” value [2] was 57.75. The “Highest safe dose (μM)” value [2] was 3.0 µM and the EC50 ([3]; Homo sapiens, HeLa) was 50 nM.
With `COC1CN([C@H]2COc3ccccc3[C@@H]2Nc2ncnc3[nH]c(C4CC4)cc23)C1` [EP-0040847] the “Highest safe dose (cytotoxicity; no FO; safe means DAPI+ <20%)” value [1] was 25.0 µM, the “Max % death with 1 μM FO” value [1] was 5.2% and the “Highest safe dose (μM)” value [2] was 25.0 µM. It also gave an EC50 [3] greater than 25000 nM.
For `COC1CN([C@@H]2COc3ccccc3[C@H]2Nc2ncnc3[nH]c(C4CC4)cc23)C1` [EP-0040848], the “Highest safe dose (cytotoxicity; no FO; safe means DAPI+ <20%)” value [1] was 25.0 µM, the “Max % death with 1 μM FO” value [1] was 10.6% and the “Mito-Safety Index” value [2] was 152.94. For the same molecule, the “Highest safe dose (μM)” value [2] was 25.0 µM and the EC50 ([3]; Homo sapiens, HeLa) was 160 nM.
For `COC1CN([C@H]2COc3ccccc3[C@@H]2Nc2ncnc3[nH]c(C(F)(F)F)cc23)C1` [EP-0040849], the “Highest safe dose (cytotoxicity; no FO; safe means DAPI+ <20%)” value [1] was 25.0 µM, the “Max % death with 1 μM FO” value [1] was 5.2% and the “Mito-Safety Index” value [2] was 2.61. The “Highest safe dose (μM)” value [2] was 25.0 µM and the EC50 [3] was 9590 nM.
In the case of `C[C@@H]1CN([C@@H]2COc3ccccc3[C@H]2Nc2ncnc3[nH]c(C(F)(F)F)cc23)C[C@H](C)O1` [EP-0040943], the “Highest safe dose (cytotoxicity; no FO; safe means DAPI+ <20%)” value [1] is reported as 25.0 µM, the “Max % death with 1 μM FO” value [1] is reported as 20.9% and the “Mito-Safety Index” value [2] is reported as 47.50. The “Highest safe dose (μM)” value [2] was 2.3 µM and the EC50 ([3]; Homo sapiens, HeLa) was 50 nM.
In the case of `C[C@@H]1CN([C@H]2COc3ccccc3[C@@H]2Nc2ncnc3[nH]c(C4CC4)cc23)C[C@H](C)O1` [EP-0040944], the “Highest safe dose (cytotoxicity; no FO; safe means DAPI+ <20%)” value [1] is reported as 25.0 µM, the “Max % death with 1 μM FO” value [1] is reported as 6.3% and the “Mito-Safety Index” value [2] is reported as 20.51. The “Highest safe dose (μM)” value [2] was 25.0 µM and the EC50 ([3]; Homo sapiens, HeLa) was 1220 nM.
With `C[C@@H]1CN([C@@H]2COc3ccccc3[C@H]2Nc2ncnc3[nH]c(C4CC4)cc23)C[C@H](C)O1` [EP-0040945] the “Highest safe dose (cytotoxicity; no FO; safe means DAPI+ <20%)” value [1] was 25.0 µM, the “Max % death with 1 μM FO” value [1] was 18.4% and the “Mito-Safety Index” value [2] was 27.95. For the same molecule, the “Highest safe dose (μM)” value [2] was 1.2 µM and the EC50 ([3]; Homo sapiens, HeLa) was 40 nM.
In the case of `C[C@@H]1CN([C@H]2COc3cc(F)ccc3[C@@H]2Nc2ncnc3[nH]c(C(F)(F)F)cc23)C[C@H](C)O1` [EP-0040946], the “Max % death with 1 μM FO” value [1] is reported as 4.8%, the “Highest safe dose (μM)” value [2] is reported as 25.0 µM and the EC50 ([3]; Homo sapiens, HeLa) is reported as greater than 25000 nM.
For `C[C@@H]1CN([C@@H]2COc3cc(F)ccc3[C@H]2Nc2ncnc3[nH]c(C(F)(F)F)cc23)C[C@H](C)O1` [EP-0040947], the “Highest safe dose (cytotoxicity; no FO; safe means DAPI+ <20%)” value [1] was 25.0 µM, the “Max % death with 1 μM FO” value [1] was 16.6% and the “Mito-Safety Index” value [2] was 98.61. The “Highest safe dose (μM)” value [2] was 2.2 µM and the EC50 ([3]; Homo sapiens, HeLa) was 20 nM.
With `C[C@@H]1CN([C@H]2COc3cc(F)ccc3[C@@H]2Nc2ncnc3[nH]c(C4CC4)cc23)C[C@H](C)O1` [EP-0040948] the “Highest safe dose (cytotoxicity; no FO; safe means DAPI+ <20%)” value [1] was 25.0 µM, the “Max % death with 1 μM FO” value [1] was 5.6% and the “Highest safe dose (μM)” value [2] was 25.0 µM. The EC50 ([3]; Homo sapiens, HeLa) was greater than 25000 nM.
In the case of `C[C@@H]1CN([C@@H]2COc3cc(F)ccc3[C@H]2Nc2ncnc3[nH]c(C4CC4)cc23)C[C@H](C)O1` [EP-0040949], the “Highest safe dose (cytotoxicity; no FO; safe means DAPI+ <20%)” value [1] is reported as 25.0 µM, the “Max % death with 1 μM FO” value [1] is reported as 21.1% and the “Mito-Safety Index” value [2] is reported as 114.83. The “Highest safe dose (μM)” value [2] was 1.2 µM and the EC50 ([3]; Homo sapiens, HeLa) was 10 nM.
For `C[C@@H]1CN([C@@H]2COc3ccccc3[C@H]2Nc2ncnc3[nH]c(C(F)(F)F)cc23)CCO1` [EP-0040956], the “Highest safe dose (cytotoxicity; no FO; safe means DAPI+ <20%)” value [1] was 25.0 µM, the “Max % death with 1 μM FO” value [1] was 24.7% and the “Mito-Safety Index” value [2] was 52.10. The “Highest safe dose (μM)” value [2] was 9.7 µM and the EC50 ([3]; Homo sapiens, HeLa) was 190 nM.
For `C[C@@H]1CN([C@@H]2COc3ccccc3[C@H]2Nc2ncnc3[nH]c(C4CC4)cc23)CCO1` [EP-0040958], the “Highest safe dose (cytotoxicity; no FO; safe means DAPI+ <20%)” value [1] was 25.0 µM, the “Max % death with 1 μM FO” value [1] was 14.1% and the “Mito-Safety Index” value [2] was 29.33. For the same molecule, the “Highest safe dose (μM)” value [2] was 1.7 µM and the EC50 ([3]; Homo sapiens, HeLa) was 60 nM.
For `C[C@H]1CN([C@@H]2COc3ccccc3[C@H]2Nc2ncnc3[nH]c(C(F)(F)F)cc23)CCO1` [EP-0040980], the “Highest safe dose (cytotoxicity; no FO; safe means DAPI+ <20%)” value [1] was 19.4 µM, the “Max % death with 1 μM FO” value [1] was 14.7% and the “Mito-Safety Index” value [2] was 50.83. The “Highest safe dose (μM)” value [2] was 19.4 µM and the EC50 ([3]; Homo sapiens, HeLa) was 380 nM.
For `C[C@H]1CN([C@H]2COc3ccccc3[C@@H]2Nc2ncnc3[nH]c(C4CC4)cc23)CCO1` [EP-0040999], the “Highest safe dose (cytotoxicity; no FO; safe means DAPI+ <20%)” value [1] was 25.0 µM, the “Max % death with 1 μM FO” value [1] was 12.1% and the “Mito-Safety Index” value [2] was 105.78. The “Highest safe dose (μM)” value [2] was 15.1 µM and the EC50 ([3]; Homo sapiens, HeLa) was 140 nM.
